Data as given in patent publication US8815918B2, “Imidazo [2, 1-B] [1, 3, 4] thiadiazole derivatives” (Centro Nacional de Investigaciones Oncologicas (CNIO), priority 2009, dated 2014).
Like-named read-outs stand apart in the source and are kept apart here.

Target: PI3K (p110α/p85α) (Homo sapiens (Human), UniProt P42336)
Test: PI3K Activity Assay (ADP Hunter Plus)
Format: biochemical
Procedure: The kinase activity was measured by using the commercial ADP Hunter™ Plus assay available from DiscoveRx (#33-016), which is a homogeneous assay to measure the accumulation of ADP, a universal product of kinase activity. The enzyme, PI3K (p110α/p85α was purchased from Carna Biosciences (#07CBS-0402A). The assay was done following the manufacturer recommendations with slight modifications: Mainly the kinase buffer was replace by 50 mM HEPES, pH 7.5, 3 mM MgCl2, 100 mM NaCl, 1 mM EGTA, 0.04% CHAPS, 2 mM TCEP and 0.01 mg/ml BGG. The PI3K was assayed in a titration experiment to determine the optimal protein concentration for the inhibition assay. To calculate the IC50 of the ETP-compounds, serial 1:5 dilutions of the compounds were added to the enzyme at a fixed concentration (2.5 μg/mL. The enzyme was preincubated with the inhibitor and 30 μM PIP2 substrate (P9763, Sigma) for 5 min and then ATP was added to a final 50 μM concentration. Reaction was carried out for 1 hour at 25° C. Reagent A and B were sequentially added to the wells and plates were incubated for 30 min at 37° C. Fluorescence counts were read in a Victor instrument (Perkin Elmer) with the recommended settings (544 and 580 nm as excitation and emission wavelengths, respectively). Values were normalized against the control activity included for each enzyme (i.e., 100% PI3 kinase activity, without compound). These values were plot against the inhibitor concentration and were fit to a sigmoid dose-response curve by using the Graphad software.

[1] = read-out: Biological activity in PI3Kα, semi-quantitative

Sequence of PI3K (p110α/p85α) (P42336 whole entry): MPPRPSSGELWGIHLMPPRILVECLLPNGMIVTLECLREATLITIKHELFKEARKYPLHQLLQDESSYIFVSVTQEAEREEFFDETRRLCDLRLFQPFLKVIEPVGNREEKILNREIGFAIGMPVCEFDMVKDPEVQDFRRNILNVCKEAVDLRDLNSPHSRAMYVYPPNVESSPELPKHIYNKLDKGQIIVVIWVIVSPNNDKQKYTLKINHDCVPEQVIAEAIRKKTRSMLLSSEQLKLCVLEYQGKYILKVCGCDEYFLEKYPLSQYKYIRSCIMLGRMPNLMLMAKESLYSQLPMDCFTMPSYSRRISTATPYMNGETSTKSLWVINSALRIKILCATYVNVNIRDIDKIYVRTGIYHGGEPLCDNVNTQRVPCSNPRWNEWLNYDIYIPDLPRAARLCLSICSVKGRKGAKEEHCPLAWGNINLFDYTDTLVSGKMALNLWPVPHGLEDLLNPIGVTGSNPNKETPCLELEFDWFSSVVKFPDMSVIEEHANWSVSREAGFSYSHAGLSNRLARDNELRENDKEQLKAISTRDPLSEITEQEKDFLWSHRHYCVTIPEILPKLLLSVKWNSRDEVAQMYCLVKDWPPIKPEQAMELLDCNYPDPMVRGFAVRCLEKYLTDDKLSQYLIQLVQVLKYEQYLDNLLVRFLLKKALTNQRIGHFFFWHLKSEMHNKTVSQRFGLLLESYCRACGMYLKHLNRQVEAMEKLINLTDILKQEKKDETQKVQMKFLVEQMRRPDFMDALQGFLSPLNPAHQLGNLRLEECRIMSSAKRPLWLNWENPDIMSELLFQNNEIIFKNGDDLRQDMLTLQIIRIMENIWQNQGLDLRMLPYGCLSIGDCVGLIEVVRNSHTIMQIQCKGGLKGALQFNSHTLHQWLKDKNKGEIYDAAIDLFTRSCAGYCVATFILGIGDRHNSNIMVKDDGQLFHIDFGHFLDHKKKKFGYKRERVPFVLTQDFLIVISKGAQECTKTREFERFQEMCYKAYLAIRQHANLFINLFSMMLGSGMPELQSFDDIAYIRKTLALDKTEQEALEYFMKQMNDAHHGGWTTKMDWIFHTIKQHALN
Sequence of PI3K (p110α/p85α) (P27986 whole entry partner): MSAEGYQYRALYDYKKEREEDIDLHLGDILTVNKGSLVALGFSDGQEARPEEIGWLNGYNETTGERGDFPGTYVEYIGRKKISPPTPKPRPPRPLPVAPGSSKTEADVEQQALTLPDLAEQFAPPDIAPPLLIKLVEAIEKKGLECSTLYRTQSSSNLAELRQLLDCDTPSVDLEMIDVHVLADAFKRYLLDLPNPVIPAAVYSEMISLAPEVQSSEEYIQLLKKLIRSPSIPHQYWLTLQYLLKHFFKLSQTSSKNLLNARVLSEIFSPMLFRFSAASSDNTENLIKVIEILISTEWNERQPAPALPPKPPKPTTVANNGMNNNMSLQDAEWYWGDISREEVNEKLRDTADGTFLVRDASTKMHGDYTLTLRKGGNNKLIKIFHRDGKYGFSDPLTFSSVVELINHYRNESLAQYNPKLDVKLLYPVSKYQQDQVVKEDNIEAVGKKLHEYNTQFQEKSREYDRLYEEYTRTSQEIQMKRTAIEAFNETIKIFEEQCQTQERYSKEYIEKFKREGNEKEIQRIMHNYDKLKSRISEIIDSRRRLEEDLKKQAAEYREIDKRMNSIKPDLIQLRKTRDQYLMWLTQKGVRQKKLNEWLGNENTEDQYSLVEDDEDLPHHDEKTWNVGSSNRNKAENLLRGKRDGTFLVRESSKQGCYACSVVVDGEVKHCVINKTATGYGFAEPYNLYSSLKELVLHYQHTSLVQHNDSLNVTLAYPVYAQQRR

IC50 [1] [µM]	IC50 (read-out: IC50 [μM] PI3Kα) [µM]	inhibition at 10 µM (10 μM compound concentration, read-out: Inhibition (%) of PI3Kα activity, Inh (%) at 10 μM) [%]	SMILES
< 0.1			CS(=O)(=O)Nc1cccc(-c2nn3c(-c4cnc(N)c(C(F)(F)F)c4)cnc3s2)c1 [Example 31, N-{3-[5-(6-Amino-5-trifluoromethyl-pyridin-3-yl)-imidazo[2,1-b][1,3,4]thiadiazol-2-yl]-phenyl}-methanesulfonamide]
< 0.1			Nc1ncc(-c2cnc3sc(-c4cccnc4)nn23)cc1C(F)(F)F [Example 32, 5-(2-Pyridin-3-yl-imidazo[2,1-b][1,3,4]thiadiazol-5-yl)-3-trifluoromethyl-pyridin-2-ylamine]
0.1 to 1			N#Cc1ccc(-c2nn3c(-c4cnc(N)c(C(F)(F)F)c4)cnc3s2)cc1 [Example 33, 4-[5-(6-Amino-5-trifluoromethyl-pyridin-3-yl)-imidazo[2,1-b][1,3,4]thiadiazol-2-yl]-benzonitrile]
< 0.1			CS(=O)(=O)NCc1cccc(-c2nn3c(-c4cnc(N)c(C(F)(F)F)c4)cnc3s2)c1 [Example 34, N-{3-[5-(6-Amino-5-trifluoromethyl-pyridin-3-yl)-imidazo[2,1-b][1,3,4]thiadiazol-2-yl]-benzyl}-methanesulfonamide]
< 0.1			NC(=O)c1cccc(-c2nn3c(-c4cnc(N)c(C(F)(F)F)c4)cnc3s2)c1 [Example 35, 3-[5-(6-Amino-5-trifluoromethyl-pyridin-3-yl)-imidazo[2,1-b][1,3,4]thiadiazol-2-yl]-benzamide]
< 0.1	0.095		CCn1cc(-c2nn3c(-c4cnc(N)c(C(F)(F)F)c4)cnc3s2)cn1 [Example 36, 5-[2-(1-Ethyl-1H-pyrazol-4-yl)-imidazo[2,1-b][1,3,4]thiadiazol-5-yl]-3-trifluoromethyl-pyridin-2-ylamine]
< 0.1			Cc1ccncc1-c1nn2c(-c3cnc(N)c(C(F)(F)F)c3)cnc2s1 [Example 37, 5-[2-(4-Methyl-pyridin-3-yl)-imidazo[2,1-b][1,3,4]thiadiazol-5-yl]-3-trifluoromethyl-pyridin-2-ylamine]
0.1 to 1	0.676		Nc1ncc(-c2cnc3sc(-c4ccc5[nH]ccc5c4)nn23)cc1C(F)(F)F [Example 40, 5-[2-(1H-Indol-5-yl)-imidazo[2,1-b][1,3,4]thiadiazol-5-yl]-3-trifluoromethyl-pyridin-2-ylamine]
< 0.1	0.05		CS(=O)(=O)c1cccc(-c2nn3c(-c4cnc(N)c(C(F)(F)F)c4)cnc3s2)c1 [Example 41, 5-[2-(3-Methanesulfonyl-phenyl)-imidazo[2,1-b][1,3,4]thiadiazol-5-yl]-3-trifluoromethyl-pyridin-2-ylamine]
0.1 to 1			CN(C)c1cccc(-c2nn3c(-c4cnc(N)c(C(F)(F)F)c4)cnc3s2)c1 [Example 42, 5-[2-(3-Dimethylamino-phenyl)-imidazo[2,1-b][1,3,4]thiadiazol-5-yl]-3-trifluoromethyl-pyridin-2-ylamine]
< 0.1	0.062		Cc1ccc(-c2nn3c(-c4cnc(N)c(C(F)(F)F)c4)cnc3s2)cn1 [Example 43, 5-[2-(6-Methyl-pyridin-3-yl)-imidazo[2,1-b][1,3,4]thiadiazol-5-yl]-3-trifluoromethyl-pyridin-2-ylamine]
0.1 to 1			Nc1ncc(-c2cnc3sc(-c4ccc(S(=O)(=O)N5CCOCC5)cc4)nn23)cc1C(F)(F)F [Example 44, 5-{2-[4-(Morpholine-4-sulfonyl)-phenyl]-imidazo[2,1-b][1,3,4]thiadiazol-5-yl}-3-trifluoromethyl-pyridin-2-ylamine]
0.1 to 1	0.437		Nc1ncc(-c2cnc3sc(-c4cccc(S(=O)(=O)N5CCOCC5)c4)nn23)cc1C(F)(F)F [Example 45, 5-{2-[3-(Morpholine-4-sulfonyl)-phenyl]-imidazo[2,1-b][1,3,4]thiadiazol-5-yl}-3-trifluoromethyl-pyridin-2-ylamine]
< 0.1			CC(=O)Nc1cccc(-c2nn3c(-c4cnc(N)c(C(F)(F)F)c4)cnc3s2)c1 [Example 46, N-{3-[5-(6-Amino-5-trifluoromethyl-pyridin-3-yl)-imidazo[2,1-b][1,3,4]thiadiazol-2-yl]-phenyl}-acetamide]
< 0.1	0.021		COc1cncc(-c2nn3c(-c4cnc(N)c(C(F)(F)F)c4)cnc3s2)c1 [Example 47, 5-[2-(5-Methoxy-pyridin-3-yl)-imidazo[2,1-b][1,3,4]thiadiazol-5-yl]-3-trifluoromethyl-pyridin-2-ylamine]
< 0.1			CS(=O)(=O)c1ccc(-c2cnc3sc(-c4cnc(N)c(C(F)(F)F)c4)nn23)cc1 [Example 49, 5-[5-(4-Methanesulfonyl-phenyl)-imidazo[2,1-b][1,3,4]thiadiazol-2-yl]-3-trifluoromethyl-pyridin-2-ylamine]
0.1 to 1		97	Nc1ncc(-c2nn3c(-c4ccc(F)nc4)cnc3s2)cc1C(F)(F)F [Example 50, 5-[5-(6-Fluoro-pyridin-3-yl)-imidazo[2,1-b][1,3,4]thiadiazol-2-yl]-3-trifluoromethyl-pyridin-2-ylamine]
< 0.1	0.018		COC(=O)c1ccc(-c2cnc3sc(-c4cnc(N)c(C(F)(F)F)c4)nn23)cc1OC [Example 51, 4-[2-(6-Amino-5-trifluoromethyl-pyridin-3-yl)-imidazo[2,1-b][1,3,4]thiadiazol-5-yl]-2-methoxy-benzoic acid methyl ester]

SMILES	IC50 [1] [µM]	IC50 (read-out: IC50 [μM] PI3Kα) [µM]	inhibition at 10 µM (10 μM compound concentration, read-out: Inhibition (%) of PI3Kα activity, Inh (%) at 10 μM) [%]
CC(C)(C)OC(=O)N1CCC2(CC1)C(=O)Nc1ccc(-c3nn4c(-c5cnc(N)c(C(F)(F)F)c5)cnc4s3)cc12 [Example 38, 5-[2-(1′-(tert-butoxycarbonyl)-2-oxo-1,2-dihydrospiro[indole-3,4′-piperidine]-5-yl)-imidazo[2,1-b][1,3,4]thiadiazol-5-yl]-3-trifluoromethyl-pyridin-2-ylamine]	1 to 50		
Nc1ncc(-c2cnc3sc(-c4ccc5c(c4)C4(CCNCC4)C(=O)N5)nn23)cc1C(F)(F)F [Example 39, 5-[2-(2-oxo-1,2-dihydrospiro[indole-3,4′-piperidine]-5-yl)-imidazo[2,1-b][1,3,4]thiadiazol-5-yl]-3-trifluoromethyl-pyridin-2-ylamine]	< 0.1		
